In PubChem BioAssay (NCI):
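Step 1: Grow cells in 96-well plates. Step 2: Expose to compound for 48 hours at 5 concentrations. Step 3: Interpolate endpoints linearly; if unreached, use highest concentration. Abbreviation: GI50, concentration required for 50% inhibition of growth. TGI marks complete inhibition of growth.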

Assays:
Assay in all cases: inhibition of tumour cell growth, NCI panel, 48 h
SF-295 CNS = tested on: SF-295 CNS
HOP-62 NSCLC = tested on: HOP-62 NSCLC
SN12C renal = tested on: SN12C renal
MOLT-4 leukemia = tested on: MOLT-4 leukemia
CAKI-1 renal = tested on: CAKI-1 renal
PC-3 prostate = tested on: PC-3 prostate
CCRF-CEM leukemia = tested on: CCRF-CEM leukemia
ACHN renal = tested on: ACHN renal
SK-OV-3 ovarian = tested on: SK-OV-3 ovarian
OVCAR-3 ovarian = tested on: OVCAR-3 ovarian
NCI-H460 lung = tested on: NCI-H460 lung
SNB-75 CNS = tested on: SNB-75 CNS
SK-MEL-2 melanoma = tested on: SK-MEL-2 melanoma
786-0 renal = tested on: 786-0 renal
IGROV1 ovarian = tested on: IGROV1 ovarian
SNB-19 CNS = tested on: SNB-19 CNS
SW-620 colon = tested on: SW-620 colon
EKVX NSCLC = tested on: EKVX NSCLC
T-47D breast = tested on: T-47D breast
DU-145 prostate = tested on: DU-145 prostate
UACC-62 melanoma = tested on: UACC-62 melanoma
HCC-2998 colon = tested on: HCC-2998 colon
HL-60(TB) leukemia = tested on: HL-60(TB) leukemia
OVCAR-8 ovarian = tested on: OVCAR-8 ovarian
COLO 205 colon = tested on: COLO 205 colon
UACC-257 melanoma = tested on: UACC-257 melanoma
SK-MEL-5 melanoma = tested on: SK-MEL-5 melanoma
HS 578T breast = tested on: HS 578T breast
TK-10 renal = tested on: TK-10 renal
M14 melanoma = tested on: M14 melanoma
K-562 leukemia = tested on: K-562 leukemia
OVCAR-5 ovarian = tested on: OVCAR-5 ovarian
RPMI-8226 leukemia = tested on: RPMI-8226 leukemia
A498 renal = tested on: A498 renal
BT-549 breast = tested on: BT-549 breast
A549 NSCLC = tested on: A549 NSCLC
NCI-H23 lung = tested on: NCI-H23 lung
HT29 colon = tested on: HT29 colon
MCF7 breast = tested on: MCF7 breast
MDA-MB-231 breast = tested on: MDA-MB-231 breast
KM12 colon = tested on: KM12 colon
NCI-H522 lung = tested on: NCI-H522 lung
MDA-MB-435 = tested on: MDA-MB-435
SF-268 CNS = tested on: SF-268 CNS
HCT-15 colon = tested on: HCT-15 colon
SR leukemia = tested on: SR leukemia
UO-31 renal = tested on: UO-31 renal
NCI-H226 lung = tested on: NCI-H226 lung
SK-MEL-28 melanoma = tested on: SK-MEL-28 melanoma
NCI/ADR-RES ovarian = tested on: NCI/ADR-RES ovarian
HCT-116 colon = tested on: HCT-116 colon
HOP-92 NSCLC = tested on: HOP-92 NSCLC
OVCAR-4 ovarian = tested on: OVCAR-4 ovarian
LOX IMVI melanoma = tested on: LOX IMVI melanoma
U251 CNS = tested on: U251 CNS
SF-539 CNS = tested on: SF-539 CNS

CCN1C(=O)N(CC)C2SC(N/N=C/c3ccccc3F)=NC21 (stereo not given)
GI50 (SF-295 CNS): 293 nM
TGI (SF-295 CNS): > 100000 nM
GI50 (HOP-62 NSCLC): 474 nM
TGI (HOP-62 NSCLC): > 100000 nM
GI50 (SN12C renal): 567 nM
TGI (SN12C renal): > 100000 nM
GI50 (MOLT-4 leukemia): 507 nM
TGI (MOLT-4 leukemia): > 100000 nM
GI50 (CAKI-1 renal): 353 nM
TGI (CAKI-1 renal): > 100000 nM
GI50 (PC-3 prostate): 347 nM
TGI (PC-3 prostate): > 100000 nM
GI50 (CCRF-CEM leukemia): 364 nM
TGI (CCRF-CEM leukemia): > 100000 nM
GI50 (ACHN renal): 864 nM
TGI (ACHN renal): > 100000 nM
GI50 (SK-OV-3 ovarian): 569 nM
TGI (SK-OV-3 ovarian): > 100000 nM
GI50 (OVCAR-3 ovarian): 330 nM
TGI (OVCAR-3 ovarian): > 100000 nM
GI50 (NCI-H460 lung): 353 nM
TGI (NCI-H460 lung): > 100000 nM
GI50 (SNB-75 CNS): 207 nM
TGI (SNB-75 CNS): > 73000 nM
GI50 (SK-MEL-2 melanoma): 326 nM
TGI (SK-MEL-2 melanoma): > 100000 nM
GI50 (786-0 renal): 657 nM
TGI (786-0 renal): > 86100 nM
GI50 (IGROV1 ovarian): 599 nM
TGI (IGROV1 ovarian): > 100000 nM
GI50 (SNB-19 CNS): 430 nM
TGI (SNB-19 CNS): > 100000 nM
GI50 (SW-620 colon): 372 nM
TGI (SW-620 colon): > 100000 nM
GI50 (EKVX NSCLC): 570 nM
TGI (EKVX NSCLC): > 100000 nM
GI50 (T-47D breast): 557 nM
TGI (T-47D breast): > 100000 nM
GI50 (DU-145 prostate): 462 nM
TGI (DU-145 prostate): > 100000 nM
GI50 (UACC-62 melanoma): 295 nM
TGI (UACC-62 melanoma): > 100000 nM
GI50 (HCC-2998 colon): 414 nM
TGI (HCC-2998 colon): 27000 nM
GI50 (HL-60(TB) leukemia): 199 nM
TGI (HL-60(TB) leukemia): 633 nM
GI50 (OVCAR-8 ovarian): 425 nM
GI50 (COLO 205 colon): 298 nM
TGI (COLO 205 colon): 1480 nM
GI50 (UACC-257 melanoma): 2170 nM
TGI (UACC-257 melanoma): > 64400 nM
GI50 (SK-MEL-5 melanoma): 603 nM
TGI (SK-MEL-5 melanoma): 20700 nM
GI50 (HS 578T breast): 299 nM
TGI (HS 578T breast): > 100000 nM
TGI (TK-10 renal): > 100000 nM
GI50 (M14 melanoma): 206 nM
TGI (M14 melanoma): 610 nM
GI50 (K-562 leukemia): 194 nM
TGI (K-562 leukemia): > 100000 nM
GI50 (OVCAR-5 ovarian): 517 nM
TGI (OVCAR-5 ovarian): > 100000 nM
GI50 (RPMI-8226 leukemia): 355 nM
TGI (RPMI-8226 leukemia): > 100000 nM
GI50 (A498 renal): 204 nM
TGI (A498 renal): 836 nM
GI50 (BT-549 breast): 298 nM
TGI (BT-549 breast): 1590 nM
GI50 (A549 NSCLC): 526 nM
TGI (A549 NSCLC): > 100000 nM
GI50 (NCI-H23 lung): 467 nM
TGI (NCI-H23 lung): > 100000 nM
GI50 (HT29 colon): 323 nM
TGI (HT29 colon): > 100000 nM
GI50 (MCF7 breast): 267 nM
TGI (MCF7 breast): > 100000 nM
GI50 (MDA-MB-231 breast): 635 nM
TGI (MDA-MB-231 breast): > 100000 nM
GI50 (KM12 colon): 383 nM
TGI (KM12 colon): > 54800 nM
GI50 (NCI-H522 lung): 172 nM
TGI (NCI-H522 lung): 527 nM
GI50 (MDA-MB-435): 75.1 nM
TGI (MDA-MB-435): 274 nM
GI50 (SF-268 CNS): 4170 nM
TGI (SF-268 CNS): > 100000 nM
GI50 (HCT-15 colon): 344 nM
TGI (HCT-15 colon): > 100000 nM
GI50 (SR leukemia): 165 nM
TGI (SR leukemia): > 100000 nM
GI50 (UO-31 renal): 643 nM
TGI (UO-31 renal): > 100000 nM
GI50 (NCI-H226 lung): 1960 nM
TGI (NCI-H226 lung): > 100000 nM
GI50 (SK-MEL-28 melanoma): 5620 nM
TGI (SK-MEL-28 melanoma): > 100000 nM
GI50 (NCI/ADR-RES ovarian): 312 nM
TGI (NCI/ADR-RES ovarian): > 65900 nM
GI50 (HCT-116 colon): 369 nM
TGI (HCT-116 colon): > 100000 nM
GI50 (HOP-92 NSCLC): 1280 nM
TGI (HOP-92 NSCLC): > 25800 nM
GI50 (OVCAR-4 ovarian): > 58300 nM
TGI (OVCAR-4 ovarian): > 100000 nM
GI50 (LOX IMVI melanoma): 556 nM
TGI (LOX IMVI melanoma): > 100000 nM
GI50 (U251 CNS): 342 nM
TGI (U251 CNS): > 39200 nM
GI50 (SF-539 CNS): 238 nM
TGI (SF-539 CNS): 772 nM
